Measurements published in patent publication US8592469B2, “Diazonamide analogs” (Joyant Pharmaceuticals, Inc., priority 2012, dated 2013).

Tests used:
U937 cells = assay: Cell viability assay (Cell-Titer-Glo) in U937 cells; assay type: cell-based; conditions: Homo sapiens, U-937, 48 hour treatment, test compounds 1 nM to 1 μM
Description: (§1) Cell viability assays were run using standard protocols known to those of skill in art. Cells were plated in 96 well plates at the density of 3,000-10,000 cells per well. Twenty four hours later, cells were treated with increasing concentration of test compounds (1 nM to 1 μM). After another 48 hour, cell survival was measured using Cell-Titer-Glo® reagent (Promega) following the protocol provided by the manufacture. The IC50 value was determined as the concentration of test compound that kills 50% of the cell population.
(§2) Cell viability data generated according to the protocol described above was generated for representative compounds in A2058 and U937 cells. The compounds shown in Table 1 were prepared by the methods described herein for structurally similar compounds. The reference compound was a synthetic diazonamide analog having the structure: […]

A2058 cells = assay: Cell viability assay (Cell-Titer-Glo) in A2058 cells; assay type: cell-based; conditions: Homo sapiens, 48 hour treatment, test compounds 1 nM to 1 μM
Description: as §1, §2

| SMILES | IC50 (U937 cells) [nM] | IC50 (A2058 cells) [nM] |
| --- | --- | --- |
| CC(C)[C@H](O)C(=O)N[C@H]1Cc2ccc3c(c2)[C@]2(C4=C(c5nc(CO)co5)N=C(O4)[C@H](C(C)C)NC1=O)c1cc(F)ccc1N[C@@H]2O3 [Compound 81] | 32.8 | 55.1 |
| COC(=O)c1coc(-c2nc3oc2C24c5ccc(F)cc5N[C@H]2Oc2ccc(cc24)C[C@H](NC(=O)[C@@H](O)C(C)C)C(=O)N[C@H]3C(C)C)n1 (stereo partly drawn) [Compound 82] | 3.4 | 40.9 |
| CC(C)[C@H](O)C(=O)N[C@H]1Cc2ccc3c(c2)C2(C4=C(c5nc(CO)co5)N=C(O4)[C@H](C(C)C)NC1=O)c1ccc(F)cc1N[C@H]2O3 (stereo partly drawn) [Compound 83] | 60.6 | 184 |
| COC(=O)c1coc(-c2nc3oc2C24c5cc(Cl)ccc5N[C@H]2Oc2ccc(cc24)C[C@H](NC(=O)[C@@H](O)C(C)C)C(=O)N[C@H]3C(C)(C)C)n1 (stereo partly drawn) [Compound 84] | 10.1 | 19.5 |
| CC(C)[C@H](O)C(=O)N[C@H]1Cc2ccc3c(c2)[C@]2(C4=C(c5nc(CO)co5)N=C(O4)[C@H](C(C)(C)C)NC1=O)c1cc(F)ccc1N[C@@H]2O3 [Compound 85] | 0.74 | 0.47 |
| CC(C)[C@H](O)C(=O)N[C@H]1Cc2ccc3c(c2)[C@]2(C4=C(c5nc(C#N)co5)N=C(O4)[C@H](C(C)C)NC1=O)c1cc(F)ccc1N[C@@H]2O3 [Compound 86] | 21.8 | 0.56 |
| CC(C)[C@H](O)C(=O)N[C@H]1Cc2ccc3c(c2)[C@]2(C4=C(c5nc(C#N)co5)N=C(O4)[C@H](C(C)(C)C)NC1=O)c1cc(F)ccc1N[C@@H]2O3 [Compound 87] | 1.9 | < 0.3 |
| COC(=O)c1coc(-c2nc3oc2[C@@]24c5ccccc5NC2Oc2ccc(cc24)C[C@H](N(C)C(=O)[C@@H](O)C(C)C)C(=O)N[C@H]3C(C)C)n1 (stereo partly drawn) [Compound 88] | 0.6 | 0.8 |
| CC(C)[C@H](O)C(=O)N(C)[C@H]1Cc2ccc3c(c2)[C@]2(C4=C(c5nc(CO)co5)N=C(O4)[C@H](C(C)C)NC1=O)c1ccccc1NC2O3 (stereo partly drawn) [Compound 89] | 1 | 3 |
| COC(=O)c1coc(-c2nc3oc2[C@@]24c5ccccc5NC2Oc2ccc(cc24)C[C@H](N(C)C(=O)[C@@H](O)C(C)C)C(=O)N[C@H]3C(C)(C)C)n1 (stereo partly drawn) [Compound 90] | 17.1 | 10.4 |
| CC(C)[C@H](O)C(=O)N(C)[C@H]1Cc2ccc3c(c2)[C@]2(C4=C(c5nc(C#N)co5)N=C(O4)[C@H](C(C)C)NC1=O)c1ccccc1NC2O3 (stereo partly drawn) [Compound 91] | 1.97 | 0.59 |
| COC(=O)c1coc(-c2nc3oc2[C@@]24c5ccccc5NC2Oc2ccc(cc24)C[C@H](NC(=O)[C@@H](O)C(C)C)C(=O)N(C)[C@H]3C(C)C)n1 (stereo partly drawn) [Compound 92] | 69.9 | 113 |
| COC(=O)c1coc(-c2nc3oc2[C@@]24c5ccccc5NC2Oc2ccc(cc24)C[C@H](N(C)C(=O)[C@@H](O)C(C)C)C(=O)N(C)[C@H]3C(C)C)n1 (stereo partly drawn) [Compound 93] | 18.6 | 35.8 |
| COC(=O)c1coc(-c2nc3oc2[C@]24c5ccccc5NC2Oc2ccc(cc24)C[C@H](NC(=O)[C@@H](O)C(C)C)C(=O)N(C)[C@H]3C(C)C)n1 (stereo partly drawn) [Compound 94] | > 300 | > 300 |
| CC(C)[C@H](O)C(=O)N[C@H]1Cc2ccc3c(c2)C2(C4=C(c5nc6cnccc6o5)N=C(O4)[C@H](C(C)C)NC1=O)c1ccccc1N[C@H]2O3 (stereo partly drawn) [Compound 95] | 65 | 142 |
| CC(C)[C@H](O)C(=O)N[C@H]1Cc2ccc3c(c2)[C@]2(C4=C(c5ccccc5)N=C(O4)[C@H](C(C)C)NC1=O)c1ccccc1NC2O3 (stereo partly drawn) [Compound 96] | > 1000 | > 1000 |
| COC(=O)c1csc(-c2nc3oc2C24c5ccccc5N[C@H]2Oc2ccc(cc24)C[C@H](NC(=O)[C@@H](O)C(C)C)C(=O)N[C@H]3C(C)C)n1 (stereo partly drawn) [Compound 97] | 59.5 | 225 |
| CC(C)[C@H](O)C(=O)N[C@H]1Cc2ccc3c(c2)C2(C4=C(c5nc(CO)cs5)N=C(O4)[C@H](C(C)C)NC1=O)c1ccccc1N[C@H]2O3 (stereo partly drawn) [Compound 98] | 231 | 284 |
| COC(=O)c1coc(-c2nc3oc2C24c5ccccc5N[C@H]2Oc2ccc(cc24)C[C@H](NC(=O)[C@@H](O)C(C)C)C(=O)N[C@@H]3C(C)C)n1 (stereo partly drawn) [Compound 99] | > 1000 | > 1000 |
| CC(C)[C@H](O)C(=O)N[C@H]1Cc2ccc3c(c2)[C@]2(C4=C(c5nc(CC(F)(F)F)co5)N=C(O4)[C@H](C(C)C)NC1=O)c1ccccc1NC2O3 (stereo partly drawn) [Compound 100] | 220 | 465 |
| CC(C)c1coc(-c2nc3oc2C24c5ccccc5N[C@H]2Oc2ccc(cc24)C[C@H](NC(=O)[C@@H](O)C(C)C)C(=O)N[C@H]3C(C)C)n1 (stereo partly drawn) [Compound 101] | 500 | 684 |
| COC(=O)c1coc(-c2nc3oc2[C@]24c5ccccc5NC2Oc2ccc(cc24)C[C@H](NC(=O)[C@@H](O)C(C)C)C(=O)N[C@H]3C(C)(C)C)n1 (stereo partly drawn) [Compound 103] | 69 | 221 |
| COC(=O)c1coc(-c2nc3oc2CC/C=C/C[C@H](NC(=O)[C@@H](O)C(C)C)C(=O)N[C@H]3C(C)C)n1 [Compound 104] | > 300 | > 300 |
| COC(=O)c1coc(-c2nc3oc2CCCCC[C@H](NC(=O)[C@@H](O)C(C)C)C(=O)N[C@H]3C(C)C)n1 [Compound 105] | > 300 | > 300 |
